{"source": "patent US7247746B2", "about": "“Crystal forms of N-(trans-4-isopropylcyclohexylcarbonyl)-D-phenylalanine” (Novartis, AG, priority 2002, dated 2007)", "test": "solubility of nateglinide in crystallisation solvents", "type": "physicochemical", "description": "First solvents in which nateglinide is readily soluble, i.e., in amounts of at least 1% by weight at an ambient temperature, include lower alcohols, such as methanol, ethanol and isopropanol. Polar solvents such as acetone, tetrahydrofuran, dioxane and dichloromethane can also be effective when used as the first solvent. Second solvents in which nateglinide is only poorly soluble, i.e., in amounts of 0.01% by weight or less, include water, hexane, heptane and diethyl ether. Where a mixed solvent is employed as the first solvent, a mixture of ethanol and toluene or a mixture of methanol and ethyl acetate is effective preferably in combination with water as the second solvent, and more preferably with water containing from about 0.5 to about 3% by weight of hydroxypropylmethylcellulose. The amount of nateglinide in the solvent ranges preferably from 1 to 50% by weight of the resulting mixture. If the amount of nateglinide is more than 50% by weight then the slurry properties of the initial suspension are poor and it will be difficult to agitate the mixture and dissolve the solid. On the other hand, it is not efficient in terms of the volume of the solvent required to use less than 1% of nateglinide by weight. […]"}
{"compound": "CC(C)[C@H]1CC[C@H](C(=O)N[C@H](Cc2ccccc2)C(=O)O)CC1", "note": "[nateglinide, N-(trans-4-isopropylcyclohexylcarbonyl)-D-phenylalanine]", "values": [{"measurement": "amount in which nateglinide is readily soluble (first solvents)", "setting": "at an ambient temperature, methanol, ethanol, isopropanol, also acetone, tetrahydrofuran, dioxane, dichloromethane", "result": "at least 1 % by weight"}, {"measurement": "amount in which nateglinide is only poorly soluble (second solvents)", "setting": "water, hexane, heptane and diethyl ether", "result": "≤ 0.01", "unit": "% by weight"}]}
